Experiments:
pigweed = test: Test B pre/postemergence pigweed; type: in vivo, Amaranthus retroflexus
Summary of the method: (§1)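 Herbicidal effect was estimated by eye on a ten-point control scale after plants spent twelve to sixteen days in a greenhouse following soil or foliar treatment. Foliar sprays targeted plants at one to four leaves; all doses were formulated in a non-phytotoxic solvent with surfactant.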

smallflower flatsedge = test: Test B flood test smallflower flatsedge; type: in vivo, Cyperus difformis
Summary of the method: (§2)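 Flood test on plants grown to the 2-leaf stage; treated plants kept in greenhouse twelve to sixteen days, then visually rated against controls on a 0 (no effect) to 10 (complete control) scale.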

duck salad = test: Test B flood test duck salad; type: in vivo, Heteranthera limosa
Summary of the method: as §2

sugar beet = test: Test B pre/postemergence sugar beet; type: in vivo, Beta vulgaris
Summary of the method: as §1

wheat = test: Test B pre/postemergence wheat; type: in vivo, Triticum aestivum
Summary of the method: as §1

rice = test: Test B flood test rice; type: in vivo, Oryza sativa
Summary of the method: as §2

morningglory = test: Test B pre/postemergence morningglory; type: in vivo, Ipomoea hederacea
Summary of the method: as §1

crabgrass = test: Test B pre/postemergence crabgrass; type: in vivo, Digitaria sanguinalis
Summary of the method: as §1

blackgrass = test: Test B pre/postemergence blackgrass; type: in vivo, Alopecurus myosuroides
Summary of the method: as §1

bedstraw = test: Test B pre/postemergence bedstraw; type: in vivo, Galium aparine; settings: Preemergence
Summary of the method: as §1

bamyardgrass = test: Test B flood test barnyardgrass; type: in vivo, Echinochloa crus-galli
Summary of the method: as §2

rape = test: Test B pre/postemergence rape; type: in vivo, Brassica napus
Summary of the method: as §1

purple nutsedge = test: Test B pre/postemergence purple nutsedge; type: in vivo, Cyperus rotundus
Summary of the method: as §1

cocklebur = test: Test B pre/postemergence cocklebur; type: in vivo, Xanthium strumarium
Summary of the method: as §1

surinam grass = test: Test B pre/postemergence surinam grass; type: in vivo, Brachiaria decumbens
Summary of the method: as §1

corn = test: Test B pre/postemergence corn; type: in vivo, Zea mays
Summary of the method: as §1

velvetleaf = test: Test B pre/postemergence velvetleaf; type: in vivo, Abutilon theophrasti
Summary of the method: as §1

soybean = test: Test B pre/postemergence soybean; type: in vivo, Glycine max
Summary of the method: as §1

giant foxtail = test: Test B pre/postemergence giant foxtail; type: in vivo, Setaria faberii
Summary of the method: as §1

wild oat = test: Test B pre/postemergence wild oat; type: in vivo, Avena fatua
Summary of the method: as §1

[1] = Postemergence, Rate 125 g/ha, scale of 0 to 10 where 0 is no effect and 10 is complete control
[2] = Postemergence, Rate 250 g/ha, scale of 0 to 10, 0 is no effect, 10 is complete control
[3] = Postemergence, Rate 500 g/ha, scale of 0 to 10 where 0 is no effect and 10 is complete control
[4] = Preemergence, Rate 62 g/ha, scale 0 to 10 (0 no effect, 10 complete control)
[5] = Preemergence, Rate 125 g/ha, scale of 0 to 10 where 0 is no effect and 10 is complete control
[6] = Preemergence, Rate 500 g/ha, scale of 0 to 10 where 0 is no effect and 10 is complete control
[7] = Rate 62 g/ha, flood test species, Pre-emergence, visual evaluation after twelve to sixteen days
[8] = Rate 125 g/ha, under heading Pre-emergence, flood test species, visual evaluation after twelve to sixteen days
[9] = Rate 250 g/ha, Pre-emergence (flood test species), scale 0 to 10, 0 is no effect, 10 is complete control
[10] = Rate 500 g/ha, Pre-emergence section of Table B, 0 to 10 scale (0 no effect, 10 complete control)
[11] = Postemergence, Rate 62 g/ha, scale of 0 to 10, 0 is no effect, 10 is complete control

CC(=O)OCC(CCl)n1c(=O)on(C(=O)N(c2ccc(F)cc2)C(C)C)c1=O (centres unmarked) [Compound 596]
0: Plant response rating, Redroot pigweed (pigweed; [1]) | Redroot pigweed plant response rating (pigweed; [2]) | Plant response rating, Redroot pigweed (pigweed; [3]) | Redroot pigweed plant response rating (pigweed; [4]) | Redroot pigweed plant response rating (pigweed; [5]) | Plant response rating, Redroot pigweed (pigweed; [6]) | Plant response rating, S. Flatsedge (0 to 10 scale, 0 is no effect, 10 is complete control) (smallflower flatsedge; [7]) | S. Flatsedge plant response rating (0 to 10 scale, 0 is no effect, 10 is complete control) (smallflower flatsedge; [8]) | S. Flatsedge plant response rating (smallflower flatsedge; [9]) | S. Flatsedge plant response rating (smallflower flatsedge; [10]) | Plant response rating, Ducksalad (0 to 10 scale, 0 is no effect, 10 is complete control) (duck salad; [7]) | Ducksalad plant response rating (0 to 10 scale, 0 is no effect, 10 is complete control) (duck salad; [8]) | Ducksalad plant response rating (duck salad; [9]) | Ducksalad plant response rating (duck salad; [10]) | Plant response rating, Sugarbeets (sugar beet; [1]) | Sugarbeets plant response rating (sugar beet; [2]) | Plant response rating, Sugarbeets (sugar beet; [3]) | Sugarbeets plant response rating (sugar beet; [4]) | Sugarbeets plant response rating (sugar beet; [5]) | Plant response rating, Sugarbeets (sugar beet; [6]) | Plant response rating, Wheat (wheat; [1]) | Wheat plant response rating (wheat; [2]) | Plant response rating, Wheat (wheat; [3]) | Wheat plant response rating (wheat; [4]) | Wheat plant response rating (wheat; [5]) | Plant response rating, Wheat (wheat; [6]) | Plant response rating, Rice (0 to 10 scale, 0 is no effect, 10 is complete control) (rice; [7]) | Rice plant response rating (0 to 10 scale, 0 is no effect, 10 is complete control) (rice; [8]) | Rice plant response rating (rice; [9]) | Rice plant response rating (rice; [10]) | Morningglory plant response rating (morningglory; [11]) | Plant response rating, Morningglory (morningglory; [1]) | Morningglory plant response rating (morningglory; [2]) | Morningglory plant response rating (morningglory; [4]) | Morningglory plant response rating (morningglory; [5]) | Plant response rating, Morningglory (morningglory; [6]) | Crabgrass plant response rating (crabgrass; [11]) | Plant response rating, Crabgrass (crabgrass; [1]) | Crabgrass plant response rating (crabgrass; [2]) | Crabgrass plant response rating (crabgrass; [4]) | Crabgrass plant response rating (crabgrass; [5]) | Blackgrass plant response rating (blackgrass; [11]) | Plant response rating, Blackgrass (blackgrass; [1]) | Blackgrass plant response rating (blackgrass; [2]) | Plant response rating, Blackgrass (blackgrass; [3]) | Blackgrass plant response rating (blackgrass; [4]) | Blackgrass plant response rating (blackgrass; [5]) | Blackgrass plant response rating (0 to 10 scale) (blackgrass; Preemergence, Rate 250 g/ha) | Blackgrass plant response rating (blackgrass; [6]) | Bedstraw plant response rating (bedstraw; Rate 62 g/ha, scale 0 to 10 (0 no effect, 10 complete control)) | Bedstraw plant response rating (bedstraw; Rate 125 g/ha, scale of 0 to 10 where 0 is no effect and 10 is complete control) | Bedstraw plant response rating (0 to 10 scale) (bedstraw; Rate 250 g/ha) | Bedstraw plant response rating (bedstraw; Rate 500 g/ha, scale of 0 to 10 where 0 is no effect and 10 is complete control) | Plant response rating, Barnyardgrass (0 to 10 scale, 0 is no effect, 10 is complete control) (bamyardgrass; [7]) | Barnyardgrass plant response rating (0 to 10 scale, 0 is no effect, 10 is complete control) (bamyardgrass; [8]) | Barnyardgrass plant response rating (bamyardgrass; [9]) | Barnyardgrass plant response rating (bamyardgrass; [10]) | Rape plant response rating (rape; [11]) | Plant response rating, Rape (rape; [1]) | Rape plant response rating (rape; [2]) | Plant response rating, Rape (rape; [3]) | Rape plant response rating (rape; [4]) | Rape plant response rating (rape; [5]) | Plant response rating, Rape (rape; [6]) | Nutsedge plant response rating (purple nutsedge; [11]) | Plant response rating, Nutsedge (purple nutsedge; [1]) | Plant response rating, Nutsedge (purple nutsedge; [3]) | Nutsedge plant response rating (purple nutsedge; [4]) | Nutsedge plant response rating (purple nutsedge; [5]) | Plant response rating, Nutsedge (purple nutsedge; [6]) | Cocklebur plant response rating (cocklebur; [11]) | Plant response rating, Cocklebur (cocklebur; [1]) | Cocklebur plant response rating (cocklebur; [2]) | Plant response rating, Cocklebur (cocklebur; [3]) | Cocklebur plant response rating (cocklebur; [4]) | Cocklebur plant response rating (cocklebur; [5]) | Cocklebur plant response rating (0 to 10 scale) (cocklebur; Preemergence, Rate 250 g/ha) | Plant response rating, Cocklebur (cocklebur; [6]) | B. signalgrass plant response rating (surinam grass; [11]) | Plant response rating, B. signalgrass (surinam grass; [1]) | B. signalgrass plant response rating (surinam grass; [2]) | Plant response rating, B. signalgrass (surinam grass; [3]) | B. signalgrass plant response rating (surinam grass; [4]) | B. signalgrass plant response rating (surinam grass; [5]) | B. signalgrass plant response rating (0 to 10 scale, 0 is no effect, 10 is complete control) (surinam grass; Preemergence, Rate 250 g/ha) | B. signalgrass plant response rating (surinam grass; [6]) | Corn plant response rating (corn; [11]) | Plant response rating, Corn (corn; [1]) | Corn plant response rating (corn; [2]) | Plant response rating, Corn (corn; [3]) | Corn plant response rating (corn; [4]) | Corn plant response rating (corn; [5]) | Corn plant response rating (0 to 10 scale) (corn; Preemergence, Rate 250 g/ha) | Plant response rating, Corn (corn; [6]) | Plant response rating, Velvetleaf (velvetleaf; [1]) | Velvetleaf plant response rating (velvetleaf; [2]) | Plant response rating, Velvetleaf (velvetleaf; [3]) | Velvetleaf plant response rating (velvetleaf; [4]) | Velvetleaf plant response rating (velvetleaf; [5]) | Plant response rating, Velvetleaf (velvetleaf; [6]) | Soybean plant response rating (soybean; [4]) | Soybean plant response rating (soybean; [5]) | Plant response rating, Soybean (soybean; [6]) | Giant foxtail plant response rating (giant foxtail; [11]) | Plant response rating, Giant foxtail (giant foxtail; [1]) | Giant foxtail plant response rating (giant foxtail; [2]) | Giant foxtail plant response rating (giant foxtail; [4]) | Giant foxtail plant response rating (giant foxtail; [5]) | Plant response rating, Wild oats (wild oat; [1]) | Wild oats plant response rating (wild oat; [2]) | Plant response rating, Wild oats (wild oat; [3]) | Wild oats plant response rating (wild oat; [4]) | Wild oats plant response rating (wild oat; [5]) | Plant response rating, Wild oats (wild oat; [6])
2: Plant response rating, Morningglory (morningglory; [3]) | Plant response rating, Crabgrass (crabgrass; [3]) | Plant response rating, Soybean (soybean; [1]) | Soybean plant response rating (soybean; [2])
6: Plant response rating, Crabgrass (crabgrass; [6])
4: Plant response rating, Giant foxtail (giant foxtail; [6])
3: Plant response rating, Soybean (soybean; [3]) | Plant response rating, Giant foxtail (giant foxtail; [3])
